Reference: patent publication US20100261666A1, “COMPOSITIONS AND METHODS FOR THE TREATMENT OF MYOCARDIAL DYSFUNCTION ASSOCIATED WITH SIRS OR SEPSIS” (THE BOARD OF TRUSTEES OF THE UNIVERSITY OF ILLINOIS, priority 2009, published 2010)
Where two headings read alike, the source gives them in different places.

Experiments:
[1] = system: ADA1; test: Real time PCR, left ventricular ADA1 mRNA expression; format: in vivo, rat
Experimental: (§1) Total RNA was isolated from left ventricular tissue using the SV Total Isolation System (Promega Corp., Madison, Wis.). Isolation was performed according to manufacturer instructions and followed by DNAse treatment to eliminate residual genomic DNA contamination. RNA integrity was determined by loading 1.0 μg of total RNA isolate from each sample onto a 1.0% agarose gel and staining with ethidium bromide to visualize the 18 and 28s RNA bands. The amount of RNA recovered was determined using the Ribogreen RNA Quantification Kit (Molecular Probes, Eugene, Oreg.). 1 μg of total RNA was reverse transcribed in a 20-4 volume using random hexamer primers with enzyme and buffers supplied in the cDNA First Strand Synthesis kit (MRI Fermentas, Hanover, Md.). First strand cDNA was treated with ribonuclease H to remove residual RNA.
Real time PCR (qPCR) was performed to measure RNA transcripts for left ventricular TNF-α and ADA1. Three housekeeping genes were selected as follows to produce an intergroup correction factor for target transcripts: Cyclophilin A, hypoxanthine-guanine physphoribosyltransferase (HPRT), and β-actin. Primers were selected using Primer 3 software (Rosen and Skaletsky, Whitehead Institute for Biomedical Research) with the rat genomic sequences for TNF gene, ADA gene, HPRT gene, β-actin gene, and Cyclophilin gene as templates. BLAST (National Center for Biotechnology Information) searches were used to verify that the selected primers were specific for the designated target.
Specific primer sequences, GenBank accession numbers, Sequence Identifiers, and product sizes are disclosed in Table 5. Primers were used in a standard PCR with the 2× Master Mix PCR reagent (MRI Fermentas) and cDNA from the tissue of interest as a template. The thermocycling profile consisted of one cycle of 95° C. for 10 minutes, followed by 41 cycles of 95° C. for 1 minute, 61° C. for 1 minute, and 72° C. for 1 minute and a final cycle of 72° C. for 10 minutes. Products were run on a 1.0% agarose gel and stained with ethidium bromide to confirm that only one band was amplified and that no primer dimers were present. PCR products were then column-purified (QIAGEN, Valencia, Calif.) and sequenced to confirm target specificity. For real-time PCRs, SYBR PCR Master Mix (Bio-Rad Laboratories, Hercules, Calif.) was used, and thermocycling and fluorescence detection was performed using a Stratagene Mx3000p real-time PCR machine.
Standards were then amplified by real-time PCR, and standard curves were generated using Stratagene Mx3000P software. […]
A housekeeping gene was selected for normalization of the real-time PCR data for the TNF-α and ADA1 transcripts. Three potential gene (mRNA) products were analyzed for this purpose: CYC, β-actin and HPRT.

[2] = system: TNF-α; test: Real time PCR, left ventricular TNF-α mRNA expression; format: in vivo, rat; settings: LPS infusion
Experimental: as §1, with “1 μg of total RNA was reverse transcribed in a 20-4 volume using random hexamer primers with enzyme and buffers supplied in the cDNA First Strand Synthesis kit (MRI Fermentas, Hanover, Md.). First strand cDNA was treated with ribonuclease H to remove residual RNA.” left out
Specific primer sequences, GenBank accession numbers, Sequence Identifiers, and product sizes are disclosed in Table 5. […] For real-time PCRs, SYBR PCR Master Mix (Bio-Rad Laboratories, Hercules, Calif.) was used, and thermocycling and fluorescence detection was performed using a Stratagene Mx3000p real-time PCR machine.
After confirmation of primer efficiency and specificity, the concentrations of purified products generated by standard PCR were determined using Molecular Probe's Picogreen DNA quantification kit, and PCR products were serially diluted to obtain standards containing 10^1, 10^2, 10^3, 10^4, 10^5, and 10^6 copies of synthetic template. […]

[3] = biological target: adenosine deaminase (Rattus norvegicus, UniProt Q920P6); settings: LV tissue homogenates at 150 minute time point
Chain of adenosine deaminase (Q920P6 whole entry): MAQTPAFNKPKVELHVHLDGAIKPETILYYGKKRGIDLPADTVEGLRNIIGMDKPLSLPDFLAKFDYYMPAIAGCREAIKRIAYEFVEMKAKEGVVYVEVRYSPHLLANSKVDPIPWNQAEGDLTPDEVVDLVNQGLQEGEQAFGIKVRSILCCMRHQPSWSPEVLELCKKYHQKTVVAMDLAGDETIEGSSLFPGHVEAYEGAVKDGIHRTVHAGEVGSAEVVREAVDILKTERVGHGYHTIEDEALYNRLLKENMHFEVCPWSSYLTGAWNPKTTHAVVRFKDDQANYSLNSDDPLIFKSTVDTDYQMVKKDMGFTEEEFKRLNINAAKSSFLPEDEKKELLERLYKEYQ
Experimental: Assays were performed according to the manufacturer's instructions.

[4] = system: rat isolated hearts; test: Langendorff rat isolated heart procedure: left ventricular function and coronary flow; format: in vivo; settings: for Coronary flow Baseline / Coronary flow 30 min / Coronary flow 60 min / Coronary flow 90 min / Coronary flow 120 min / Coronary flow 150 min: mean ± SEM
Experimental: Male Sprague Dawley, virus-free rats (Harlan) were used in each of the examples presented herein. After arrival and a brief acclimation (72 hours minimum), animals were randomized into control or experimental groups. The control and experimental protocols (Table 1) and experimental group treatments (Table 2) are described below.
Rat isolated heart experiments were performed via Langendorff method. […] CON hearts received vehicle (IP sterile water). […] Heparin was allowed to circulate for 60 seconds at which time a thoracotomy was performed to expose the heart. The heart was quickly removed, placed in ice cold Krebs-Ringers bicarbonate buffer (KRB, described below) and weighed. The ascending aorta was rapidly cannulated and the heart was attached, via the cannula, to the perfusion apparatus. The hearts were perfused with a modified KRB containing (102 mM NaCl, 4.75 mM KCl, 1.20 mM KH2PO4, 1.18 mM MgSO4, 22.75 mM NaHCO3, 11.50 mM Glucose, 4.96 mM Na-Pyruvate, 5.40 mM Na-Fumarate and 1 mM CaCl2), at a temperature of 37.0° C., and pH 7.4 as maintained by vigorous bubbling with 95%/5% O2/CO2.
At all times, hearts were perfused with KRB at a pressure of 72-78 mmHg set by the height of the water-jacketed reservoir. The left atrium of the heart was then removed, just above the left atrio-ventricular valve. A latex balloon was used to measure left ventricular pressure as an index of cardiac performance. The balloon was constructed by filling the reservoir tip of a latex condom with degassed water. PE-50 tubing, pre-filled with degassed water and attached to a stopcock/Hamilton screw-top syringe assembly, was flanged and placed into the tip of the condom. Surgical silk (5-0) was used to gather the condom tip around the flanged end of the tubing and form a seal, at which time the excess latex was removed.
The balloon/stopcock assembly was attached to a pressure transducer (Spectramed-Statham) and inserted into the left ventricle to record cardiac performance data via Windaq (DATAQ, CA). Two platinum electrodes, connected to a electrical stimulator (Grass Model 92C), were placed at the lateral edges of the right atria in order to pace the heart at 300 BPM using a voltage 10% greater than that required to capture rhythm. The volume in the latex balloon was increased to produce a left ventricular diastolic pressure (LVdiaP) of 10.0 mmHg.
The heart was then perfused normally for 30 minutes, a period designated as the equilibration phase. During this phase of perfusion hearts had to maintain a LVdiaP of 10.0±2.0 mmHg to be included in the study. At the end of thirty minutes, baseline measurements of coronary flow and left ventricular pressure were made. This time point was designated as 0 minutes. At this time, hearts receiving LPS (10 μg/mL/min) were infused via injection port/stop cock assembly, into the KRB perfusion stream, just above the aortic cannula for a total infusion time of 60 minutes. Hearts not receiving LPS were infused with vehicle (sterile water, 1.25% coronary flow (mL)·min). At 60 minutes, infusion was halted and normal KRB perfusion continued for 90 minutes (total experimental time post-equilibration=150 minutes).
Measurements of coronary flow and left ventricular pressure were taken every 30 minutes starting at 0 minutes. At the termination of the experiment, the left ventricle was rapidly excised from the whole heart, flash frozen in liquid nitrogen and stored at −80.0° C. for further analysis.
Statistical analysis was performed on data generated from these experimental protocols using a one-way analysis of variance (one-way ANOVA) with pair wise comparisons (Fisher Least Significant Difference test (LSD)). Data is presented herein as mean±standard error of the mean (SEM).
The Fisher LSD was used to determine whether 30 and 150 min values differed from baseline values. In addition, changes from baseline values (e.g., 30 or 150 minute value−respective baseline value) were compared among groups.

[5] = biological target: ADA (Homo sapiens, UniProt P00813); settings: cited from earlier work
Chain of ADA (P00813 whole entry, species assumed, the tested form may be a part): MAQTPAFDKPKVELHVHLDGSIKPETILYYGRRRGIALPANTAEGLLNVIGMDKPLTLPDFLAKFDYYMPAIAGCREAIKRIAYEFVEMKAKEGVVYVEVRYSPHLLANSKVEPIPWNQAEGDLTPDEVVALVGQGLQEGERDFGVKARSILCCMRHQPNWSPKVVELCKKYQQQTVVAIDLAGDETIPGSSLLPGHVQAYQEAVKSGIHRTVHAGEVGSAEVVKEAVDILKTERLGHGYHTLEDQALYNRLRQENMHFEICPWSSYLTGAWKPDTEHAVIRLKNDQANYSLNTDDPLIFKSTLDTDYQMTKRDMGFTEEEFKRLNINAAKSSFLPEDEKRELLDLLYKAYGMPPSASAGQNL

[6] = LPS infusion, 30 minutes, change from baseline, mean±SEM

- LV ADA activity compared to CON and LPS hearts ([3]; LPS infusion): significant decrease
- LV ADA activity compared to CON and LPS hearts ([3]; vehicle infusion): significant decrease
Compound: OC[C@H]1O[C@@H](n2cnc3c2N=CNCC3O)CC1O (stereo in doubt) [dCF, 2′-deoxycoformycin]
- left ventricular ADA1 mRNA expression (copy numbers) compared to CON and LPS hearts ([1]; LPS infusion): significantly lower
- left ventricular ADA1 mRNA expression (copy numbers) compared to CON and LPS hearts ([1]; vehicle infusion): significantly lower
- left ventricular TNF-α mRNA expression compared to LPS hearts [2]: did not significantly alter
- Coronary flow Baseline ([4]; LPS infusion 10 μg/mL/min (-LPS group)): 27.4 ± 1.7 mL/min
- Coronary flow 30 min ([4]; LPS infusion (-LPS group)): 28.7 ± 1.2 mL/min
- Coronary flow 60 min ([4]; LPS infusion (-LPS group)): 27.8 ± 1.2 mL/min
- Coronary flow 90 min ([4]; LPS infusion (-LPS group)): 25.7 ± 1.0 mL/min
- Coronary flow 120 min ([4]; LPS infusion (-LPS group)): 22.4 ± 1.1 mL/min
- Coronary flow 150 min ([4]; LPS infusion (-LPS group)): 19.6 ± 0.8 mL/min
- +dP/dt compared to respective baseline ([4]; LPS infusion, 30 minutes): significantly greater
- LV developed pressure compared to respective baseline ([4]; LPS infusion, 30 minutes): significantly increased
- LV diastolic pressure compared to respective baseline ([4]; LPS infusion, 30 minutes): significantly lower
- LV systolic pressure compared to respective baseline ([4]; LPS infusion, 30 minutes): significantly greater
- increase in LV developed pressure compared to LPS group ([4]; LPS infusion, 30 minutes): similar
- increase in LV systolic pressure compared to LPS group ([4]; LPS infusion, 30 minutes): similar
- increase in −dP/dt compared to LPS group ([4]; LPS infusion, 30 minutes): similar
- −dP/dt compared to respective baseline ([4]; LPS infusion, 30 minutes): significantly greater
- increase in LV developed pressure [4, 6]: 20.1±3.2 mmHg
- increase in LV systolic pressure [4, 6]: 17.1±3.0 mmHg
- +dP/dt compared to CON ([4]; LPS infusion, 150 minutes): No differences
- +dP/dt compared to LPS hearts ([4]; LPS infusion, 150 minutes): improved
- LV developed pressure compared to CON ([4]; LPS infusion, 150 minutes): No differences
- LV developed pressure compared to LPS hearts ([4]; LPS infusion, 150 minutes): improved
- LV developed pressure compared to respective baseline ([4]; LPS infusion, 150 minutes): not significantly different
- LV diastolic pressure (LPS-induced increase) compared to LPS hearts ([4]; LPS infusion, 150 minutes): improved
- LV systolic pressure compared to LPS group / among groups ([4]; LPS infusion, 150 minutes): no significant differences
- −dP/dt compared to LPS alone / among groups ([4]; LPS infusion, 150 minutes): No significant differences
- −dP/dt compared to respective baseline ([4]; LPS infusion, 150 minutes): significantly lower
- Coronary flow 30 min ([4]; vehicle infusion (-CON group)): 27.7 ± 1.9 mL/min
- Coronary flow 60 min ([4]; vehicle infusion (-CON group)): 26.3 ± 2.1 mL/min
- Coronary flow 90 min ([4]; vehicle infusion (-CON group)): 24.5 ± 1.8 mL/min
- Coronary flow 120 min ([4]; vehicle infusion (-CON group)): 21.5 ± 1.9 mL/min
- Coronary flow 150 min ([4]; vehicle infusion (-CON group)): 19.8 ± 2.0 mL/min
- Coronary flow Baseline ([4]; vehicle infusion (-CON group)): 28.1 ± 1.9 mL/min
- +dP/dt compared to respective baseline ([4]; vehicle infusion, 30 minutes): no differences
- LV diastolic pressure compared to respective baseline ([4]; vehicle infusion, 30 minutes): significantly lower
- −dP/dt compared to respective baseline ([4]; vehicle infusion, 30 minutes): no differences
- LV developed pressure compared to respective baseline ([4]; vehicle infusion, 150 minutes): not significantly different
- −dP/dt compared to respective baseline ([4]; vehicle infusion, 150 minutes): significantly lower
- binding between dCF and ADA [5]: effectively irreversible
